Reference: paper PMC6934184, “Selective DNA-PKcs inhibition extends the therapeutic index of localized radiotherapy and chemotherapy” (The Journal of Clinical Investigation, 2019)

Molecular target: T1, PDGFRA (PDGFR alpha) (Homo sapiens, UniProt P16234)
T1 construct: purchased Thermo Fisher Scientific (Life Technologies) SelectScreen
Assay: SelectScreen Z'LYTE
Type: biochemical
Summary of the method: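 NU5455 was profiled across the SelectScreen Broad panel of kinase activity and binding assays. Z'LYTE reactions such as CSF1R ran at apparent Km ATP, while the Adapta CAMK1 assay used ATP listed as 10. Values are given as percent.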

T1 sequence (P16234 24-1089): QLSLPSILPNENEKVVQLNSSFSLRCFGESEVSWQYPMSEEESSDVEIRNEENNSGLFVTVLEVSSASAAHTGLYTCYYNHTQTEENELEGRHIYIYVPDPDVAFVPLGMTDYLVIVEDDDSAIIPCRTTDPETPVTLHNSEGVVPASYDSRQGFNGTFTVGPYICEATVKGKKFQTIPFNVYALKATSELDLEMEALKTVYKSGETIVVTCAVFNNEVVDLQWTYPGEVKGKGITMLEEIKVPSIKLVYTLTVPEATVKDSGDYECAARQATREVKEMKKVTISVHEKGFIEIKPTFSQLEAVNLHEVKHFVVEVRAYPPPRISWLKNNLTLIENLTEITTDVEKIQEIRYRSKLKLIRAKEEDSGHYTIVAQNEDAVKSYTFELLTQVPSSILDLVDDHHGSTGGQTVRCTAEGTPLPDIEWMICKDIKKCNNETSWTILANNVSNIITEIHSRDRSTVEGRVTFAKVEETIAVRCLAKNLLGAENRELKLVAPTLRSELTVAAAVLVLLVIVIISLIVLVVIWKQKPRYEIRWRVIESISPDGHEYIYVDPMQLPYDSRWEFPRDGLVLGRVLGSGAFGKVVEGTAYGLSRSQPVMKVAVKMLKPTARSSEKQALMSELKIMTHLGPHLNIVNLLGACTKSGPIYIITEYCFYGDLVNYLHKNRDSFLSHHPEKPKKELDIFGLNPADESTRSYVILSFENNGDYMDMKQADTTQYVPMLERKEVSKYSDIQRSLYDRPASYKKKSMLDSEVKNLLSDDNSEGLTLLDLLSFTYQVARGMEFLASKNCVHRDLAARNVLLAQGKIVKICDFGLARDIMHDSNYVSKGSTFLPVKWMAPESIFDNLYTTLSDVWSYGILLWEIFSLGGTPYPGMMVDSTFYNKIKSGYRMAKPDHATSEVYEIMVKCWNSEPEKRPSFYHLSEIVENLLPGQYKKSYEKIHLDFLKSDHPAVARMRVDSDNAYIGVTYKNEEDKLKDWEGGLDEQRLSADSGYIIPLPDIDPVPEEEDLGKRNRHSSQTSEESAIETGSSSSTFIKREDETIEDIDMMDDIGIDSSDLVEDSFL

Molecule `CN(C(=O)CN1CCOCC1)c1ccc2sc3c(-c4cccc5c(=O)cc(N6CC7CCC(C6)O7)oc45)cccc3c2c1` [NU5455] has an inhibition at 1 µM of -6.8%.
